Laboratory results taken from patent US20250332266A1, “COMPOUNDS FOR THE DEGRADATION OF EGFR KINASE” (BeiGene Switzerland GmbH, priority 2022, published 2025).

Tests used:
[1] = biological target: T1, EGFR L858R/T790M/C797S (H1975-clone #25) (Homo sapiens, UniProt P00533, C797S/L858R/T790M); assay: EGFR degradation, HTRF total-EGFR assay, H1975-clone #25 (LTC); assay type: cell-based; settings: H1975-clone #25 L858R/T790M/C797S, 16 h treatment
T1 construct: expressed in transfected cells; host or cells: H1975 (clone #25), lentiviral transduction, endogenous EGFR knocked out
T1 sequence (P00533 25-1210 T790M/C797S/L858R): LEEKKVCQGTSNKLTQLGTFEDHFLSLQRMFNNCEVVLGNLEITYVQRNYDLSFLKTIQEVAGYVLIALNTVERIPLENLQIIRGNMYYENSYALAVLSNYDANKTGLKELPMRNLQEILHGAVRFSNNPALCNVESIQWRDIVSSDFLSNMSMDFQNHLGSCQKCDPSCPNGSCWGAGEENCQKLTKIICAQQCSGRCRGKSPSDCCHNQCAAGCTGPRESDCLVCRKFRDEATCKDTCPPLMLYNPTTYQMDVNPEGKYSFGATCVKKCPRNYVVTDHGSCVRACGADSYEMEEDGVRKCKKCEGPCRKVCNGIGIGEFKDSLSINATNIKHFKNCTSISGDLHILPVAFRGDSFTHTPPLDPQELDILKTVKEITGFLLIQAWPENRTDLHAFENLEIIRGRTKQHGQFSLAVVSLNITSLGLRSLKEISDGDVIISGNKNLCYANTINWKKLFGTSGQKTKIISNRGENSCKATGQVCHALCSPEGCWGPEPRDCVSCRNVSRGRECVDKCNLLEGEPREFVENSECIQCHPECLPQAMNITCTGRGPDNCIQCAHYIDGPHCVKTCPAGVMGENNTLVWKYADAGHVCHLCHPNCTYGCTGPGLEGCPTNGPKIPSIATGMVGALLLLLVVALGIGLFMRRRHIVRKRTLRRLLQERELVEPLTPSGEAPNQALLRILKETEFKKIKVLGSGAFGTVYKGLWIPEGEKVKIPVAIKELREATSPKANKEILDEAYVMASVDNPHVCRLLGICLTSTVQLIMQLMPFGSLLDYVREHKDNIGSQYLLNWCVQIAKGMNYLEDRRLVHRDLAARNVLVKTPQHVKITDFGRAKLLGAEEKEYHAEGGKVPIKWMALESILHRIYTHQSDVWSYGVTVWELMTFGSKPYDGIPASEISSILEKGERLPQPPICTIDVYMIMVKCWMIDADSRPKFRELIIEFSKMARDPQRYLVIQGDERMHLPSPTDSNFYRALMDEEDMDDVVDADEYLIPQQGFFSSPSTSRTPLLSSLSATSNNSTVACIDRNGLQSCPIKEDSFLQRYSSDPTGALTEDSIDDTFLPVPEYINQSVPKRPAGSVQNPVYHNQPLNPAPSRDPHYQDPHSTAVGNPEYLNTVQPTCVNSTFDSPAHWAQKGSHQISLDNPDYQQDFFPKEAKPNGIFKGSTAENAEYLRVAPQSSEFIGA
Method in brief: (§1)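 H1975 clones with endogenous EGFR knocked out and homozygous exogenous EGFR mutants (#28 Del19/T790M/C797S; #25 L858R/T790M/C797S) treated 16 h at 37 °C, 8 doses, 5-fold from 10 μM, 0.2% DMSO. Total EGFR measured by HTRF on lysates, normalised to DMSO controls; DC50 and Dmax from curve fit.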

[2] = biological target: EGFR Del19/T790M/C797S (H1975-clone #28) (Homo sapiens, UniProt P00533, T790M/C797S, form not given); assay: EGFR degradation, HTRF total-EGFR assay, H1975-clone #28 (DTC); assay type: cell-based; settings: H1975-clone #28 Del19/T790M/C797S, 16 h treatment
Sequence of EGFR Del19/T790M/C797S (H1975-clone #28) (P00533 with tags, fused parts or gaps DEL746-750/T790M/C797S, form open): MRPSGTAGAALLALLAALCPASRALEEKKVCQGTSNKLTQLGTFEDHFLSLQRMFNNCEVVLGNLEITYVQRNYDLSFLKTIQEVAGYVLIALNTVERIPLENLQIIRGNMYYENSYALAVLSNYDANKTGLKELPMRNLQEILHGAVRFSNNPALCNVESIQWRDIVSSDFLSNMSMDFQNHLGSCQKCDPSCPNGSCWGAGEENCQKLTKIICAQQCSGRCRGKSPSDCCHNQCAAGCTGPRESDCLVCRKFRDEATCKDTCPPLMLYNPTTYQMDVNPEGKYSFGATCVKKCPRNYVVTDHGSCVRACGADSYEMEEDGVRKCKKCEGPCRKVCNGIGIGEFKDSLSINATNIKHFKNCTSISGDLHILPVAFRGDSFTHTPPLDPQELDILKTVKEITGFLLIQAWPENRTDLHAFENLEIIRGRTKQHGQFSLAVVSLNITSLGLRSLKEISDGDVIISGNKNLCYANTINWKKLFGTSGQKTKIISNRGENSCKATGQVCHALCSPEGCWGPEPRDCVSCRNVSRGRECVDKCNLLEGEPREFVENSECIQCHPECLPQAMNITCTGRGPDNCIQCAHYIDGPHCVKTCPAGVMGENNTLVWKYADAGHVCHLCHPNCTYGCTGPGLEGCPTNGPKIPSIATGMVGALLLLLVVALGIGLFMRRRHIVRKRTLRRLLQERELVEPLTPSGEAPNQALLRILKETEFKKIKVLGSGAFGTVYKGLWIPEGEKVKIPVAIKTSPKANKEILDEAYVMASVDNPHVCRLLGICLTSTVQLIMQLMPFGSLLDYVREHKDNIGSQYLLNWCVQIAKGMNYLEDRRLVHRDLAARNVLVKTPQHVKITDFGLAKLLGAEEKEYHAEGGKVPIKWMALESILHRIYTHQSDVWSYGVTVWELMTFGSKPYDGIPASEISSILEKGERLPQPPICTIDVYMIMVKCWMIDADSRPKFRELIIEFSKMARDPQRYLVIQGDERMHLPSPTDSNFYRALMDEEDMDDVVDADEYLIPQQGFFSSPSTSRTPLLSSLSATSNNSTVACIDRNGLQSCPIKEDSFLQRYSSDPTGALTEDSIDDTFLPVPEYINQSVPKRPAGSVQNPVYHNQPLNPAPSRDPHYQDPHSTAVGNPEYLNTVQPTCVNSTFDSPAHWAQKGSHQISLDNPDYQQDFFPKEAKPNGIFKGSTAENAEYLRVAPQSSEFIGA
Method in brief: as §1

| Degradation H1975 # 25-LTC [1] | Degradation H1975 # 28 DTC [2] | SMILES |
| --- | --- | --- |
| 90.5 | 84.2 | Cc1cc2cc(n1)-c1cnn(C)c1OC[C@H]1C[C@@H](CN3/C(=N/C2=O)Nc2ccc(N4CCN(C5CCN(c6cc(F)c([C@H]7CCC(=O)NC7=O)c(F)c6)CC5)[C@@H](CO)C4)cc23)C1 [Example 31, (R)-3-(4-(4-((R)-4-((7^1s,7^3S,E)-1^1,2^6-dimethyl-3-oxo-5^2,5^3-dihydro-1^1H,5^1H-9-oxa-4-aza-5(2,1)-benzo[d]imidazola-2(2,4)-pyridina-1(4,5)-pyrazola-7(1,3)-cyclobutanacyclononaphane-5^6-yl)-2-(hydroxymethyl)piperazin-1-yl)piperidin-1-yl)-2,6-difluorophenyl)piperidine-2,6-dione] |
| 87.7 | 78.0 | Cc1cc2cc(n1)-c1cnn(C)c1OC[C@H]1C[C@@H](CN3/C(=N/C2=O)Nc2ccc(N4CCN(C5CCN(c6ccc(C7CCC(=O)NC7=O)nc6)CC5)C[C@@H]4C)cc23)C1 (stereo partly drawn) [Example 36, 3-(5-(4-((S)-4-((7^1s,7^3R,E)-1^1,2^6-dimethyl-3-oxo-5^2,5^3-dihydro-1^1H,5^1H-9-oxa-4-aza-5(2,1)-benzo[d]imidazola-2(2,4)-pyridina-1(4,5)-pyrazola-7(1,3)-cyclobutanacyclononaphane-5^6-yl)-3-methylpiperazin-1-yl)piperidin-1-yl)pyridin-2-yl)piperidine-2,6-dione] |

Continued, molecule first:

| SMILES | Degradation H1975 # 25-LTC [1] | Degradation H1975 # 28 DTC [2] |
| --- | --- | --- |
| Cc1cc2cc(n1)-c1cnn(C)c1OC[C@H]1C[C@@H](CN3/C(=N/C2=O)Nc2ccc(N4CCN(C5CCN(c6cnc([C@H]7CCC(=O)NC7=O)cc6C)CC5)C[C@@H]4C)cc23)C1 [Example 32, 3-(5-(4-((S)-4-((7^1s,7^3R,E)-1^1,2^6-dimethyl-3-oxo-5^1,5^3-dihydro-1^1H,5^1H-9-oxa-4-aza-5(2,1)-benzo[d]imidazola-2(2,4)-pyridina-1(4,5)-pyrazola-7(1,3)-cyclobutanacyclononaphane-5^6-yl)-3-methylpiperazin-1-yl)piperidin-1-yl)-4-methylpyridin-2-yl)piperidine-2,6-dione] | 88.8 | 88.8 |
| Cc1cc2cc(n1)-c1cnn(C)c1OC[C@H]1C[C@@H](CN3/C(=N/C2=O)Nc2ccc(N4CCN(C5CCN(c6ccc(C7CCC(=O)NC7=O)nc6C)CC5)C[C@@H]4C)cc23)C1 (stereo partly drawn) [Example 33, 3-(5-(4-((S)-4-((7^1s,7^3R,E)-1^1,2^6-dimethyl-3-oxo-5^2,5^3-dihydro-1^1H,5^1H-9-oxa-4-aza-5(2,1)-benzo[d]imidazola-2(2,4)-pyridina-1(4,5)-pyrazola-7(1,3)-cyclobutanacyclononaphane-5^6-yl)-3-methylpiperazin-1-yl)piperidin-1-yl)-6-methylpyridin-2-yl)piperidine-2,6-dione] | 93.3 | 89.4 |
| Cc1cc2cc(n1)-c1cnn(C)c1OC[C@H]1C[C@@H](CN3/C(=N/C2=O)Nc2ccc(N4CCN(C5CCN(c6ccc(C7CCC(=O)NC7=O)nc6C)CC5)C[C@H]4C)cc23)C1 (stereo partly drawn) [Example 34, 3-(5-(4-((R)-4-((7^1s,7^3S,E)-1^1,2^6-dimethyl-3-oxo-5^2,5^3-dihydro-1^1H,5^1H-9-oxa-4-aza-5(2,1)-benzo[d]imidazola-2(2,4)-pyridina-1(4,5)-pyrazola-7(1,3)-cyclobutanacyclononaphane-5^6-yl)-3-methylpiperazin-1-yl)piperidin-1-yl)-6-methylpyridin-2-yl)piperidine-2,6-dione] | 93.3 | 89.6 |
| Cc1cc2cc(n1)-c1cnn(C)c1OC[C@H]1C[C@@H](CN3/C(=N/C2=O)Nc2ccc(N4CCN(C5CCN(c6ccc(C7CCC(=O)NC7=O)nc6)CC5)C(=O)C4)cc23)C1 (stereo partly drawn) [Example 35, 3-(5-(4-(4-((7^1s,7^3s,E)-1^1,2^6-dimethyl-3-oxo-5^2,5^3-dihydro-1^1H,5^1H-9-oxa-4-aza-5(2,1)-benzo[d]imidazola-2(2,4)-pyridina-1(4,5)-pyrazola-7(1,3)-cyclobutanacyclononaphane-5^6-yl)-2-oxopiperazin-1-yl)piperidin-1-yl)pyridin-2-yl)piperidine-2,6-dione] | 85.9 | 72.9 |
